Measurements from US20090227533A1, “miR-34 Regulated Genes and Pathways as Targets for Therapeutic Intervention” (priority 2007, published 2009).
pIC50: −log10 of the molar value.

Columns and labels:
A549 cells = experiment: Alamar Blue proliferation assay, lung cancer cells; format: cell-based, human; settings: normalized to NC (100%)
Description: (§1) The inventors assessed the therapeutic effect of hsa-miR-34a for lung cancer by using eight individual lung cancer cell lines. To measure cellular proliferation of lung cancer cells, the following non-small cell lung cancer (NSCLC) cells were used: cells derived from lung adenocarcinoma (A549, H522, Calu-3, HCC2935), cells derived from lung squamous cell carcinoma (H226), cell derived from lung adenosquamous cell carcinoma (H596), cells derived from lung bronchioalveolar carcinoma (H1650), and cells derived from lung large cell carcinoma (H460). Synthetic hsa-miR-34a (Pre-miR™-hsa-miR-34a, Ambion cat. no. AM17100) or negative control (NC) miRNA (Pre-miR™ microRNA Precursor Molecule-Negative Control #2; Ambion cat. no. AM17111) was delivered via lipid-based transfection into A549, H522, H596, Calu-3, HCC2935, H1650, H460 cells and via electroporation into H226 cells.
(§2) Lipid-based reverse transfections were carried out in triplicate according to a published protocol (Ovcharenko et al., 2005) and the following parameters: cells (5,000-12,000 per 96 well), 0.1-0.2 μl Lipofectamine™ 2000 (cat. no. 11668-019, Invitrogen Corp., Carlsbad, Calif., USA) in 20 μl OptiMEM (Invitrogen), 30 nM final concentration of miRNA in 100 μl. Electroporation of H226 cells was carried out using the BioRad Gene Pulser Xcell™ instrument (BioRad Laboratories Inc., Hercules, Calif., USA) with the following settings: 5×10^6 cells with 5 μg miRNA in 200 μl OptiMEM (1.6 μM miRNA), square wave pulse at 250 V for 5 ms. Electroporated H226 cells were seeded at 7,000 cells per 96-well in a total volume of 100 μl. All cells except for Calu-3 cells were harvested 72 hours post transfection or electroporation for assessment of cellular proliferation. Calu-3 cells were harvested 10 days post transfection. Proliferation assays were performed using Alamar Blue (Invitrogen) following the manufacturer's instructions. As a control for inhibition of cellular proliferation, siRNA against the motor protein kinesin 11, also known as Eg5, was used. Eg5 is essential for cellular survival of most eukaryotic cells and a lack thereof leads to reduced cell proliferation and cell death (Weil et al., 2002). siEg5 was used in lipid-based transfection following the same experimental parameters that apply to miRNA. The inventors also used a DNA topoisomerase II inhibitor, etoposide, at a final concentration of 10 μM and 50 μM as an internal standard for the potency of miRNAs. Etoposide is an FDA-approved DNA topoisomerase II inhibitor in the treatment of lung cancer. […] Percent (%) proliferation values from the Alamar Blue assay were normalized to values from cells treated with negative control miRNA. Percent proliferation of hsa-miR-34a treated cells relative to cells treated with negative control miRNA (100%) is shown in Table 7 and in FIG. 1.

Calu-3 cells = experiment: Alamar Blue proliferation assay, lung cancer cells; format: cell-based, human; settings: Calu-3, normalized to NC (100%)
Description: as §1, §2

H1650 cells = experiment: Alamar Blue proliferation assay, lung cancer cells; format: cell-based, human; settings: normalized to NC (100%)
Description: as §1, §2

H460 cells = experiment: Alamar Blue proliferation assay, lung cancer cells; format: cell-based, human; settings: normalized to NC (100%)
Description: as §1, §2

H522 cells = experiment: Alamar Blue proliferation assay, lung cancer cells; format: cell-based, human; settings: normalized to NC (100%)
Description: as §1, §2

H596 cells = experiment: Alamar Blue proliferation assay, lung cancer cells; format: cell-based, human; settings: normalized to NC (100%)
Description: as §1, §2

H226 cells = experiment: Alamar Blue proliferation assay, lung cancer cells (electroporation); format: cell-based, human; settings: normalized to NC (100%)
Description: as §1
Lipid-based reverse transfections were carried out in triplicate according to a published protocol (Ovcharenko et al., 2005) and the following parameters: cells (5,000-12,000 per 96 well), 0.1-0.2 μl Lipofectamine™ 2000 (cat. no. 11668-019, Invitrogen Corp., Carlsbad, Calif., USA) in 20 μl OptiMEM (Invitrogen), 30 nM final concentration of miRNA in 100 μl. Electroporation of H226 cells was carried out using the BioRad Gene Pulser Xcell™ instrument (BioRad Laboratories Inc., Hercules, Calif., USA) with the following settings: 5×10^6 cells with 5 μg miRNA in 200 μl OptiMEM (1.6 μM miRNA), square wave pulse at 250 V for 5 ms. Electroporated H226 cells were seeded at 7,000 cells per 96-well in a total volume of 100 μl. All cells except for Calu-3 cells were harvested 72 hours post transfection or electroporation for assessment of cellular proliferation. Calu-3 cells were harvested 10 days post transfection. Proliferation assays were performed using Alamar Blue (Invitrogen) following the manufacturer's instructions. As a control for inhibition of cellular proliferation, siRNA against the motor protein kinesin 11, also known as Eg5, was used. […]

H460 lung cancer cells = experiment: Alamar Blue proliferation assay with pair-wise miRNA combinations; format: cell-based, human; settings: normalized to 600 pM negative control miRNA
Description: miRNAs function in multiple pathways controlling multiple cellular processes. Cancer cells frequently show aberrations in several different pathways, which determine their oncogenic properties. […] The inventors assessed the efficacy of pair-wise miRNA combinations, administering hsa-miR-34a concurrently with either hsa-miR-124a, hsa-miR-126, hsa-miR-147, hsa-let-7b, hsa-let-7c or hsa-let-7g (Pre-miR™ miRNA, Ambion cat. no. AM17100). H460 lung cancer cells were transiently reverse-transfected in triplicate with each miRNA at a final concentration of 300 pM, resulting in 600 pM of total oligonucleotide. For negative controls, 600 pM of Pre-miR™ microRNA Precursor Molecule-Negative Control #2 (Ambion cat. no. AM17111) were used. To correlate the effect of various combinations with the effect of the sole miRNA, each miRNA at 300 pM was also combined with 300 pM negative control miRNA. Reverse transfection was carried out using the following parameters: 7,000 cells per 96 well, 0.15 μl Lipofectamine™ 2000 (Invitrogen) in 20 μl OptiMEM (Invitrogen), 100 μl total transfection volume. […] Cells were harvested 72 hours after transfection and subjected to Alamar Blue assays (Invitrogen). Percent proliferation values from the Alamar Blue assays were normalized to those obtained from cells treated with 600 pM negative control miRNA. Data are expressed as % proliferation relative to negative control miRNA-treated cells (Table 8, FIG. 3).
Additive activity of pair-wise combinations (e.g., hsa-miR-34a plus hsa-miR-147) is defined as an activity that is greater than the sole activity of each miRNA (e.g., the activity of hsa-miR-34a plus hsa-miR-147 is greater than that observed for hsa-miR-34a plus NC and the activity of hsa-miR-34a plus hsa-miR-147 is greater than that observed for hsa-miR-147 plus NC). Synergistic activity of pair-wise combinations is defined as an activity that is greater than the sum of the sole activity of each miRNA (e.g., the activity of hsa-miR-34a plus hsa-let-7g is greater than that observed for the sum of the activity of hsa-miR-34a plus NC and the activity of hsa-let-7g plus NC). […] The combinatorial use of miRNAs represents a potentially useful therapy for cancer and other diseases.

SCLC and NSCLC cells = settings: various lung cancer cells (Tsai et al., 1993; Ohsaki et al., 1992); cited from earlier work

## COc1cc([C@@H]2c3cc4c(cc3[C@@H](O[C@@H]3O[C@@H]5CO[C@@H](C)O[C@H]5[C@H](O)[C@H]3O)[C@H]3COC(=O)[C@H]23)OCO4)cc(OC)c1O [Etoposide, etoposide]
A549 cells; etoposide 10 μM
  % proliferation: 49.13%
A549 cells; etoposide 50 μM
  % proliferation: 42.18%
Calu-3 cells; etoposide 10 μM
  % proliferation: 20.81%
Calu-3 cells; etoposide 50 μM
  % proliferation: 13.53%
H1650 cells; etoposide 10 μM
  % proliferation: 90.98%
H1650 cells; etoposide 50 μM
  % proliferation: 60.31%
H460 cells; etoposide 10 μM
  % proliferation: 32.13%
H460 cells; etoposide 50 μM
  % proliferation: 27.82%
H522 cells; etoposide 10 μM
  % proliferation: 82.13%
H522 cells; etoposide 50 μM
  % proliferation: 61.08%
H596 cells; etoposide 10 μM
  % proliferation: 88.75%
H596 cells; etoposide 50 μM
  % proliferation: 73.39%
H226 cells; etoposide 10 μM
  % proliferation: 28.17%
H226 cells; etoposide 50 μM
  % proliferation: 9.33%
H460 lung cancer cells; etoposide 10 μM
  % proliferation: 20.19%
H460 lung cancer cells; etoposide 50 μM
  % proliferation: 14.94%
SCLC and NSCLC cells
  pIC50: 4.60 to 6.00
